From patent US6432954B1, “Pharmaceutical compositions and methods for use” (Targacept, Inc., priority 2000, dated 2002)

Tests used:
Format in all cases: physicochemical
[1] = Water absorption (hygroscopicity) of the salt
Excerpt: (§1) The salts of the present invention which are derived from aryl substituted amines and 2,3-diacyl-tartaric acids have a number of advantages over other salts derived from aryl substituted amines and other acids, such as fumaric acid or galactaric acid. […] As such, the di-p-toluoyl-D-tartrate salt of (2S)-(4E)-N-methyl-5-[3-(5-isopropoxypyridin)yl)]-4-penten-2-amine is a free-flowing crystalline powder; and such a property is a definite advantage for pharmaceutical formulation development and pharmaceutical manufacturing. If necessary, this salt can be milled to an acceptable particle size range for pharmaceutical processing. […] The salt is compatible with a wide range of excipients that might be chosen for the manufacture of solid oral dosage forms. This is especially so for those exicipients, such polysaccharide derivatives, that are pharmaceutically defined hydrates and those with only loosely bound surface water. As an illustration, salts derived from certain aryl substituted amines, such as E-metanicotine and fumaric acid are prone to the formation of impurities within the salt. For example, impurities arise from the Michael addition reaction of the secondary amine in E-metanicotine to the olefin in fumaric acid. These impurities lower the chemical purity of the salt and adversely affect the chemical integrity of the salt upon long-term storage. […]

[2] = Water solubility of the salt
Excerpt: as §1

[3] = Physical and chemical stability of the salt
Excerpt: as §1

amount of water absorbed ([1]; room temperature and 90% relative humidity) [%] | water solubility [2] | stability [3] | amount of water absorbed ([1]; 40° C. and 70% relative humidity) [%] | SMILES
3.2 | water soluble | physically and chemically stable |  | CN[C@@H](C)C/C=C/c1cncc(OC(C)C)c1 [Sample No. 2, (2S)-(4E)-N-methyl-5-[3-(5-isopropoxypyridin)yl]-4-penten-2-amine hemi-(di-p-toluoyl-D-tartrate)]
 |  |  | 11.8 | CN[C@@H](C)C/C=C/c1cncc(OC(C)C)c1.CN[C@@H](C)C/C=C/c1cncc(OC(C)C)c1.O=C(O)[C@@H](O)[C@H](O)[C@H](O)[C@@H](O)C(=O)O [hemigalactarate of (2S)-(4E)-N-methyl-5-[3-(5-isopropoxypyridin)yl)]-4-penten-2-amine, reference compound]
